Experimental data: patent US20180193330A1, “ALKYLATED TETRAHYDROISOQUINOLINES FOR BINDING TO CENTRAL NERVOUS SYSTEM RECEPTORS” (Florida A&M University, priority 2017, published 2018)
Counter-ions that a name gives are not always drawn. Like-named read-outs stand apart in the source and are kept apart here.

Columns and labels:
5-HT2C receptor = target: T1, 5-HT2C receptor (Homo sapiens, UniProt P28335); experiment: Receptor binding affinity at 5-HT2C (NIMH-PDSP radioligand binding); settings: for Ki: read-out: Ki 5-HT2C
T1 sequence (P28335 33-458): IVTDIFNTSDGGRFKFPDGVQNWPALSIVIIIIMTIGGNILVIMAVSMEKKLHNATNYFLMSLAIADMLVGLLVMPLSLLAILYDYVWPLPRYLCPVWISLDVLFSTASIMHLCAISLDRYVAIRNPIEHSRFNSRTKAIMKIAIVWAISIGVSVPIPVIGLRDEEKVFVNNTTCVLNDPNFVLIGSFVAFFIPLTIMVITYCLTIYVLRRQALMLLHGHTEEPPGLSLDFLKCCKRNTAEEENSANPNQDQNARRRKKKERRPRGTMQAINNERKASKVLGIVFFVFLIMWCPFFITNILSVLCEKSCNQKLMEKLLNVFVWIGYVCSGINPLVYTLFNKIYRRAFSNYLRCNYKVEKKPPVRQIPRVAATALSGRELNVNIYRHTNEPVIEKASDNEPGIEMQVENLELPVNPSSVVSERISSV

histamine H1 receptor = histamine H1 receptor (Homo sapiens, UniProt P35367); experiment: Receptor binding affinity at histamine H1 (NIMH-PDSP radioligand binding)
D3 receptor = D3 receptor (Homo sapiens, UniProt P35462); experiment: Receptor binding affinity at dopamine D3 (NIMH-PDSP radioligand binding)
5-HT1A receptor = target: T2, 5-HT1A receptor (Homo sapiens, UniProt P08908); experiment: Receptor binding affinity at 5-HT1A (NIMH-PDSP radioligand binding)
T2 sequence (P08908 1-422): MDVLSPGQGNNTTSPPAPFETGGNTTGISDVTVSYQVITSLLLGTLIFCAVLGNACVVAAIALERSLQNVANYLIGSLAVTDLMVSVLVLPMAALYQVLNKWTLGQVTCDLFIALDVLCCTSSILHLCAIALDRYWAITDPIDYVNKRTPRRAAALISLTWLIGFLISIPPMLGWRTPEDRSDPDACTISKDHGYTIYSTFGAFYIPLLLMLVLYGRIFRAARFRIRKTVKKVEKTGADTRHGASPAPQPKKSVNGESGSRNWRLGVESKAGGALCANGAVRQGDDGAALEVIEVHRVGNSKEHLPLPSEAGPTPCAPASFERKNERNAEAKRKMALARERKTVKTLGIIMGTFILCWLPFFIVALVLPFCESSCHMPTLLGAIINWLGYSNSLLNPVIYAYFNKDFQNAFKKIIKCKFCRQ

D4 receptor = target: T3, D4 receptor (Homo sapiens, UniProt P21917); experiment: Receptor binding affinity at dopamine D4 (NIMH-PDSP radioligand binding)
T3 sequence (P21917 1-419): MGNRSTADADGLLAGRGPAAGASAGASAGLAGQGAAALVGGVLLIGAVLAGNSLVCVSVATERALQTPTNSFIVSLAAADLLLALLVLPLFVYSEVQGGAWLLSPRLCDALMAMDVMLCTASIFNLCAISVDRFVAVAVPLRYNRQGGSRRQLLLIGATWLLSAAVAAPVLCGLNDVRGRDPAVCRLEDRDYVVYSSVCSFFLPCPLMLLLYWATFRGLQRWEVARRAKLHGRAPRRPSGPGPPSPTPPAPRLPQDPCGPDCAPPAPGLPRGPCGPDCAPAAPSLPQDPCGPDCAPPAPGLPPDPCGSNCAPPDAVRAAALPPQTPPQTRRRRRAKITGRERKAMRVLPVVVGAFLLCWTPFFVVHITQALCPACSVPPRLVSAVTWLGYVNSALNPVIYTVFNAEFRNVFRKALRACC

5-HT2B receptor = 5-HT2B receptor (Homo sapiens, UniProt P41595); experiment: Receptor binding affinity at 5-HT2B (NIMH-PDSP radioligand binding)
5-HT2A receptor = 5-HT2A receptor (Homo sapiens, UniProt P28223); experiment: Receptor binding affinity at 5-HT2A (NIMH-PDSP radioligand binding)
5-HT7 receptor = 5-HT7 receptor (Homo sapiens, UniProt P34969); experiment: Receptor binding affinity at 5-HT7 (NIMH-PDSP radioligand binding)
D2 receptor = D2 receptor (Homo sapiens, UniProt P14416); experiment: Receptor binding affinity at dopamine D2 (NIMH-PDSP radioligand binding)
[1] = Table 5, Group 3 analogs, Ki without SEM within 20% of mean

Chain of 5-HT7 receptor (P34969 whole entry): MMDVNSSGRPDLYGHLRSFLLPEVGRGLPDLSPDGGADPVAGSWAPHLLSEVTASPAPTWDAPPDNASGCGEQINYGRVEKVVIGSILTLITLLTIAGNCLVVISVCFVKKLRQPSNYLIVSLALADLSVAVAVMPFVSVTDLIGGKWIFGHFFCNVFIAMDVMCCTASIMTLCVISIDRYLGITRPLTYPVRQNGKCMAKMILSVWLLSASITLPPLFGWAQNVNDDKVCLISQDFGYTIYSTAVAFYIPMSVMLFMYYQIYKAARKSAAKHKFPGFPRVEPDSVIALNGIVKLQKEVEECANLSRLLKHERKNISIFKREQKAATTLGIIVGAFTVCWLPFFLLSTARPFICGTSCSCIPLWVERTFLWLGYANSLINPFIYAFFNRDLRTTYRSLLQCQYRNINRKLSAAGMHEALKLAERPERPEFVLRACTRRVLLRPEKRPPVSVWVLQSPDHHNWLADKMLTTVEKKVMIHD
Chain of D3 receptor (P35462 whole entry): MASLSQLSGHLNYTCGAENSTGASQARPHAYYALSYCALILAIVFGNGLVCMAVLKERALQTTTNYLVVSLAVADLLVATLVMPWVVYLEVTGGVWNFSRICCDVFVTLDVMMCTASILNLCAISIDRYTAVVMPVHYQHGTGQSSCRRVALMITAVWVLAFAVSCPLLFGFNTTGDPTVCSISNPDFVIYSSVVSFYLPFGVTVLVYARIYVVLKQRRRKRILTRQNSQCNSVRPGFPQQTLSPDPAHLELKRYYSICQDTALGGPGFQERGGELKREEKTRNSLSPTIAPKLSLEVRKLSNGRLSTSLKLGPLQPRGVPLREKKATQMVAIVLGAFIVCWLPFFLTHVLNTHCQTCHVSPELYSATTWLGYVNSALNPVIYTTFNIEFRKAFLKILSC
Chain of 5-HT2A receptor (P28223 whole entry): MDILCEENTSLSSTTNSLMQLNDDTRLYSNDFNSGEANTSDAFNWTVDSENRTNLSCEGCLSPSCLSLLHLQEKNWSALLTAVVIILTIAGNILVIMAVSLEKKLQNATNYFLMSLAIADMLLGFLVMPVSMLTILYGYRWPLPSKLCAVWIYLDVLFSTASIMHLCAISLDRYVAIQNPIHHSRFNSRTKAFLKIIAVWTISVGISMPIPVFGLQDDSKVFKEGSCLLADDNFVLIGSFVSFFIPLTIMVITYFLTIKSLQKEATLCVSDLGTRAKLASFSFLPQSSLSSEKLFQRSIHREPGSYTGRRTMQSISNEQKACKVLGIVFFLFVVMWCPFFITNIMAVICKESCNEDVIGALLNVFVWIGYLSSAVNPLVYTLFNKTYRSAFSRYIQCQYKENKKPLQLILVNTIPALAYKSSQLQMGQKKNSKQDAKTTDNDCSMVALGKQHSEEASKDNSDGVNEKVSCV
Chain of 5-HT2B receptor (P41595 whole entry): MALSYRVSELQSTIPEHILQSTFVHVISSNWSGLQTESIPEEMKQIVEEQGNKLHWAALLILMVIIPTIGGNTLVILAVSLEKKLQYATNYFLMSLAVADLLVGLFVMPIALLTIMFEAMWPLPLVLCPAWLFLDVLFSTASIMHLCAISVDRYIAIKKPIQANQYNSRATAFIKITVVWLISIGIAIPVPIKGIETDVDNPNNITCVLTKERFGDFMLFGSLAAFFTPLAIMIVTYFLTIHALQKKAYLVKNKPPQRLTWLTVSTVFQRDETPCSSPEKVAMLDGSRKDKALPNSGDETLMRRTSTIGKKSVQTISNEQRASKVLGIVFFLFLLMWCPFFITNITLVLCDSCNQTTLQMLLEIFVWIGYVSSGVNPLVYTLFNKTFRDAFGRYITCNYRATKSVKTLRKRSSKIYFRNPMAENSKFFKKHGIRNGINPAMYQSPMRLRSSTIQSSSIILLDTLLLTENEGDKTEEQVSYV
Chain of D2 receptor (P14416 whole entry): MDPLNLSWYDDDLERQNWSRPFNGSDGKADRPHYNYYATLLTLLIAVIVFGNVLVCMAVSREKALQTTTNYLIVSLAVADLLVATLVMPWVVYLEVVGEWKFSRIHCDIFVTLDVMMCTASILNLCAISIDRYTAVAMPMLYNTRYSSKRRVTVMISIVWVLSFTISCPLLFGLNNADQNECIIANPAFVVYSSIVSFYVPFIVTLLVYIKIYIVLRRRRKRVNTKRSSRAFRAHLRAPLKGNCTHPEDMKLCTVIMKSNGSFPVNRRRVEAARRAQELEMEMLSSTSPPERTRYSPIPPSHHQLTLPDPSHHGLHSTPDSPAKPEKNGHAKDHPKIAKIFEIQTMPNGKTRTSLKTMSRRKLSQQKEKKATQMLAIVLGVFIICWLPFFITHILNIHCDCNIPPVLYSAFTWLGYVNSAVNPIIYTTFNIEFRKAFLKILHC
Chain of histamine H1 receptor (P35367 whole entry, species assumed): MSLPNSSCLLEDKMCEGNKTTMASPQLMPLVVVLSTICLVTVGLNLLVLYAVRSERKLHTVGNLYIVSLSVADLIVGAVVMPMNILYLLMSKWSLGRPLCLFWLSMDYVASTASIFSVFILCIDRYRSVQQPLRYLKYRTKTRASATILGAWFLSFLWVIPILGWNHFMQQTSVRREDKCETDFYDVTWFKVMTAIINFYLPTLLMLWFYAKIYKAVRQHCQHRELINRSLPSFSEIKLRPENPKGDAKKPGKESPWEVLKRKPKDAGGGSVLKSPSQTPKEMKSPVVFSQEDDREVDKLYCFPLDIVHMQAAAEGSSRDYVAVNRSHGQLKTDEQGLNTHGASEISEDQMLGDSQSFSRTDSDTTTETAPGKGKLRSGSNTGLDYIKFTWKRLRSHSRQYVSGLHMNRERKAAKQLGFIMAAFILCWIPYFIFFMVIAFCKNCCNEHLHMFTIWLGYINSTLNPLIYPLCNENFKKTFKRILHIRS

Cl.O=C(CCCN1CCc2ccccc2CC1)c1ccc(Cl)cc1 [Compound 3f, 1-(4-Chlorophenyl)-4-(4,5-dihydro-1H-benzo[d]azepin-3(2H)-yl)butan-1-one hydrochloride]
pKi ± SEM 5-HT2C (5-HT2C receptor; Table 5, Group 3 analogs): (6.21 ± 0.07)
pKi ± SEM H1 (histamine H1 receptor; Table 5, Group 3 analogs): (6 ± 0.3)
Ki (histamine H1 receptor; [1]): 1090 nM
Ki (D3 receptor): 106 nM
Ki (5-HT1A receptor; [1]): 214 nM
pKi ± SEM D4 (D4 receptor; Table 5, Group 3 analogs): (7.09 ± 0.04)
pKi ± SEM 5-HT2B (5-HT2B receptor; Table 5, Group 3 analogs): (6.26 ± 0.05)
pKi ± SEM 5-HT2A (5-HT2A receptor; Table 5, Group 3 analogs): (6.55 ± 0.03)
pKi ± SEM 5-HT7 (5-HT7 receptor; Table 5, Group 3 analogs): (6.68 ± 0.05)
Ki (5-HT7 receptor; [1]): 138 nM

Clc1ccc(C(=CCCN2CCc3ccccc3C2)c2ccc(Cl)cc2)cc1 [Compound 2c, 2-(4,4-Bis(4-chlorophenyl)but-3-en-1-yl)-1,2,3,4-tetrahydroisoquinineol hydrobromide]
Ki (5-HT2C receptor; Table 4, Group 2 analogs): 2030 nM
pKi ± SEM H1 (histamine H1 receptor; Table 4, Group 2 analogs): (6 ± 0.07)
Ki (D3 receptor; Table 4, Group 2 analogs): 150 nM
pKi ± SEM D3 (D3 receptor; Table 4, Group 2 analogs): (6.8 ± 0.1)
pKi ± SEM 5-HT7 (5-HT7 receptor; Table 4, Group 2 analogs): (6.3 ± 0.07)

O=C(CCCN1CCCc2ccccc21)c1ccc(Cl)cc1 [Compound 3c, 1-(4-Chlorophenyl)-4-(3,4-dihydroquinolin-1(2H)-yl) butan-1-one]
Ki (5-HT2C receptor): > 10000 nM
melting point: 192 to 193 °C

COc1cc2c(cc1OC)CN(CCCCc1nc3cc(Cl)ccc3s1)CC2.Cl [Compound 1i, 5-Chloro-2-(4-(6,7-dimethoxy-3,4-dihydroisoquinolin-2(1H)-yl)butyl)benzo[d]thiazole hydrochloride]
pKi ± SEM D2 (D2 receptor): (6.38 ± 0.09)
pKi ± SEM 5-HT2C (5-HT2C receptor; Table 3, Group 1 analogs): (6.48 ± 0.08)
Ki (histamine H1 receptor; Table 3, Group 1 analogs): 327 nM
pKi ± SEM D3 (D3 receptor): (5.97 ± 0.07)
pKi ± SEM 5-HT1A (5-HT1A receptor; Table 3, Group 1 analogs): (8 ± 0.05)
pKi ± SEM D4 (D4 receptor; Table 3, Group 1 analogs): (6.57 ± 0.07)
pKi ± SEM 5-HT2B (5-HT2B receptor; Table 3, Group 1 analogs): (8.15 ± 0.08)
Ki (5-HT2A receptor; Table 3, Group 1 analogs): 667 nM
pKi ± SEM 5-HT2A (5-HT2A receptor; Table 3, Group 1 analogs): (6.2 ± 0.1)
pKi ± SEM 5-HT7 (5-HT7 receptor): (7.17 ± 0.06)

c1ccc2c(c1)CCN(CCCc1nc3ccccc3[nH]1)C2 [Compound 1d, 2-(3-(1H-benzo[d]imidazol-2-yl)propyl)-1,2,3,4-tetrahydroisoquinoline]
Ki (D2 receptor; Table 3, Group 1 analogs): 915 nM
pKi ± SEM D2 (D2 receptor; Table 3, Group 1 analogs): 6.09 ± 0.09
Ki (histamine H1 receptor; Table 3, Group 1 analogs): 290 ± 40 nM
Ki (D3 receptor; Table 3, Group 1 analogs): 2180 nM
pKi ± SEM 5-HT1A (5-HT1A receptor; Table 3, Group 1 analogs): 7.19 ± 0.07
pKi ± SEM D4 (D4 receptor; Table 3, Group 1 analogs): 6.9 ± 0.07
Ki (5-HT7 receptor; Table 3, Group 1 analogs): 91 nM

O=C1c2ccccc2C(=O)N1CCCCN1CCC2CCCCC2C1 (stereo not drawn) [Compound 2, 2-(4-(Octahydroisoquinolin-2(1H)-yl)butyl)isoindoline-1,3-dione]
Ki (D4 receptor): > 10000 nM
decrease in binding affinity to the 5-HT7R (5-HT7 receptor; relative to compound 1): ~40 fold

O=C1c2ccccc2C(=O)N1CCCCN1Cc2ccccc2C1 [Compound 3, 2-(4-(Isoindolin-2-yl)butyl)isoindoline-1,3-dione]
Ki H1 (histamine H1 receptor): MTA (MTA = Missed 50% of threshold inhibition.)
Ki 5-HT1A (5-HT1A receptor): MTA (MTA = Missed 50% of threshold inhibition.)

C1=C(CCN2CCc3ccccc3C2)CCc2ccccc21 [Compound 2b, 2-(2-(3,4-dihydronaphthalen-2-yl)ethyl)-1,2,3,4-tetrahydroisoquinoline]
pKi ± SEM 5-HT2C (5-HT2C receptor; Table 4, Group 2 analogs): (5.54 ± 0.07)
pKi ± SEM H1 (histamine H1 receptor; Table 4, Group 2 analogs): (5.84 ± 0.07)
Ki (D3 receptor; Table 4, Group 2 analogs): 184 nM
pKi ± SEM D3 (D3 receptor; Table 4, Group 2 analogs): (6.73 ± 0.04)
Ki (5-HT1A receptor; Table 4, Group 2 analogs): 138 nM
pKi ± SEM D4 (D4 receptor; Table 4, Group 2 analogs): (6.85 ± 0.05)
Ki (5-HT2B receptor): 126 nM
pKi ± SEM 5-HT2A (5-HT2A receptor; Table 4, Group 2 analogs): (6.01 ± 0.09)
Ki (5-HT7 receptor; Table 4, Group 2 analogs): 65 nM
pKi ± SEM 5-HT7 (5-HT7 receptor; Table 4, Group 2 analogs): (7.18 ± 0.07)

Br.c1ccc2c(c1)CCN(CCCc1nc3ccccc3s1)C2 [Compound 1b, 2-(3-(3,4-dihydroisoquinolin-2(1H)-yl)propyl)benzo[d]thiazole hydrobromide]
pKi ± SEM 5-HT2C (5-HT2C receptor; Table 3, Group 1 analogs): (5.93 ± 0.05)
pKi ± SEM H1 (histamine H1 receptor; Table 3, Group 1 analogs): (6.09 ± 0.08)
Ki (D3 receptor; Table 3, Group 1 analogs): 80 nM
Ki (5-HT1A receptor; Table 3, Group 1 analogs): 95 nM
pKi ± SEM D4 (D4 receptor; Table 3, Group 1 analogs): (7.39 ± 0.04)
Ki (5-HT2B receptor; Table 3, Group 1 analogs): 18 nM
pKi ± SEM 5-HT2A (5-HT2A receptor; Table 3, Group 1 analogs): (5.69 ± 0.06)
Ki (5-HT7 receptor; Table 3, Group 1 analogs): 37 nM

Cl.Clc1cccc2c1CN(CCCCc1nc3ccccc3s1)CC2 [Compound 1e, 2-(4-(8-Chloro-3,4-dihydroisoquinolin-2(1H)-yl)butyl)benzo[d]thiazole hydrochloride]
pKi ± SEM D2 (D2 receptor): (6.57 ± 0.08)
Ki (5-HT2C receptor; Table 3, Group 1 analogs): 675 nM
Ki (histamine H1 receptor; Table 3, Group 1 analogs): 293 nM
Ki (D3 receptor): 31 nM
pKi ± SEM D3 (D3 receptor): (7.52 ± 0.04)
Ki (5-HT1A receptor; Table 3, Group 1 analogs): 29 nM
pKi ± SEM 5-HT1A (5-HT1A receptor; Table 3, Group 1 analogs): (7.53 ± 0.08)
pKi ± SEM D4 (D4 receptor; Table 3, Group 1 analogs): (6.89 ± 0.08)
Ki (5-HT2B receptor; Table 3, Group 1 analogs): 239 nM
Ki (5-HT2A receptor; Table 3, Group 1 analogs): 258 nM
pKi ± SEM 5-HT2A (5-HT2A receptor; Table 3, Group 1 analogs): (6.6 ± 0.10)
Ki (5-HT7 receptor; Table 3, Group 1 analogs): 45 nM

O=C(CCCN1CCc2ccccc2C1)c1ccc(O)cc1 [Compound 15, 4-(3,4-Dihydroisoquinolin-2(1H)-yl)-1-(4-hydroxyphenyl) butan-1-one hydrochloride]
Ki (5-HT2C receptor; Table 1, FIG. 7 analogs): 8.2 nM
